The results in this text go back to patent US7745404B2, “Use of calcitonin and calcitonin-like peptides to treat and prevent multiple sclerosis” (Wisconsin Alumni Research Foundation, priority 2002, dated 2010).

What all share (format): in vivo
Assay [1] relates to experimental autoimmune encephalomyelitis (EAE) in male 1α-OH KO mice. As to the kind of experiment: EAE (murine model of MS) in male 1α-OH KO mice, Example 1. The procedure:
(§1) To determine the effect of calcitonin on the murine model of MS, experimental autoimmune encephalomyelitis (EAE), 25-hydroxyvitamin D3-1α-hydroxylase knockout mice (1α-OH KO) were maintained on a purified diet containing 0.87% calcium and 1 ng 1,25-(OH)2D3 (Vit D) for two to three weeks prior to EAE immunization. EAE was induced at six to ten weeks of age by subcutaneous immunization of 200 μg of the immunodominant peptide to myelin oligodendrocyte glycoproprotein (MOG35-55).
(§2) The peptide was synthesized at University of Wisconsin Biotechnology Center using standard 9-fluorenyl-methoxy-carbonyl chemistry. The peptide was dissolved in Freund's complete adjuvant (CFA; Sigma; St. Louis, Mo.) containing 4 mg/ml of heat-inactivated Mycobacterium tuberculosis […] (Difco Laboratories; Detroit, Mich.).
(§3) Mice were injected with 200 ng of Bordetella pertussis toxin (List Biological Laboratories, Campbell, Calif.) on the day of immunization and 48 hours later. The mice were examined daily for clinical signs of EAE utilizing the following scoring system: 0, no sign; 1, limp tail; 2, hindlimb weakness; 3, hindlimb paralysis; 4, forelimb paralysis; 5, moribund or death.
(§4) Salmon calcitonin (sCT; Bachem California; Torrence, Calif.) was dissolved to a concentration of 1 mg/ml in a vehicle containing 150 mM NaCl, 1 mM HCl, and 2% heat inactivated sera. The serum used was from 1α-OH KO mice matched by sex to the group of mice receiving the treatment. SCT was chronically administered using Alzet osmotic minipumps model 1002 (Durect Corp.; Cupertino, Calif.) calibrated to deliver 0.25 μl/hour over a 15 day period.
(§5) Ten days after immunization, mice were weighed and the pumps were filled with either vehicle or sCT diluted to deliver 6 μg/kg of body weight per day to each mouse. The pumps were surgically placed subcutaneously in the upper back of mice anesthetized with 2% isofluorane. At the end of the study, successful delivery of the sCT was assessed by two methods. First, the fluid volume remaining in the pump reservoirs was measured. Second, the remaining sCT was pooled and intraperitoneally injected into 1α-knockout mice that were not included in the initial study. Serum calcium measurements were taken six hours after injection to determine if sCT maintained its bioactivity throughout the study. Blood samples were collected at multiple time-points throughout the study to monitor changes in serum calcium levels. Blood was obtained by the orbital bleed method. Approximately 150 μl was collected per mouse.
(§6) Statistical analysis was performed using the two-tailed Fisher exact probability test on incidence rates and the unpaired Student's t-test on all other measurements. Values of P<0.05 were considered statistically significant.

For assay [2], the system named is EAE in female C57BL6h mice. As to the kind of experiment: EAE in female C57BL6h mice, Example 2. The procedure: To determine the effect of calcitonin on EAE in mice, female mice were maintained as described above. The strain of mouse used in this experiment was C57BL6 which was obtained from Harlan Labs and therefore should be designated C57BL6h. The only difference from the experiment above is that these mice were fed a regular chow diet (Formulab Chow 5008, PMI Labdiet).
EAE was induced as described above. Mice were injected with 200 ng of B. pertussis toxin on the day of immunization and 48 hours later.
sCT was prepared as described above. One week after immunization, mice were weighed and the pumps were filled with vehicle, 6 μg/kg of sCT per day of body weight to each mouse. The pumps were surgically placed subcutaneously in the upper back of mice anesthetized with 2% isofluorane. At the end of the study, successful delivery of the sCT was assessed by two methods. First, the fluid volume remaining in the pump reservoirs was measured. Second, the remaining sCT was pooled and intraperitoneally injected into mice that were not included in the initial study. Serum calcium measurements were taken six hours after injection to determine if sCT maintained its bioactivity throughout the study.
Mice were examined daily, for over two weeks, for clinical signs of EAE utilizing the following scoring system described above.
Blood samples were collected at multiple time-points and prepared and analyzed as described above. Likewise, statistical analysis was performed as noted above.

In assay [3] the test system is experimental autoimmune encephalomyelitis (EAE) in female 1α-OH KO mice. Briefly: EAE (murine model of MS) in female 1α-OH KO mice, Example 1. As to the method:
as §1, §2, §3, §4, §5, §6

On to Salmon calcitonin [sCT], for which the “% Sick” value is listed as 28.6% in assay [1] (male 1α-KO mice, 0.87% calcium + 1 ng Vitamin D diet, sCT 6 μg/kg per day by minipump); 25.0% in assay [2] (sCT 6 μg/kg per day by minipump from one week after immunization); 42.9% in assay [3] (female 1α-KO mice, 0.87% calcium + 1 ng Vitamin D diet, sCT 6 μg/kg per day by minipump from ten days after immunization). Further, the Severity in assay [1] (male 1α-KO mice, 0.87% calcium + 1 ng Vitamin D diet, sCT 6 μg/kg per day by minipump, EAE score 0-5) is reported as 2.5 ± 0.7; in assay [2] (sCT 6 μg/kg per day by minipump from one week after immunization, EAE score 0-5), 2.0 ± 0.7; in assay [3] (female 1α-KO mice, 0.87% calcium + 1 ng Vitamin D diet, sCT 6 μg/kg per day by minipump, EAE score 0-5) it was 1.3 ± 0.6. Besides, the “Mean Onset Day” value in assay [1] (male 1α-KO mice, 0.87% calcium + 1 ng Vitamin D diet, sCT 6 μg/kg per day by minipump, days post immunization) worked out at 30 ± 8 days; in assay [2] (sCT 6 μg/kg per day by minipump from one week after immunization, days post immunization), 14 ± 1 days; in assay [3] (female 1α-KO mice, 0.87% calcium + 1 ng Vitamin D diet, sCT 6 μg/kg per day by minipump, days post immunization), 41 ± 11 days. Further, the Incidence is 2/7 sick in assay [1] (male 1α-KO mice, 0.87% calcium + 1 ng Vitamin D diet, sCT 6 μg/kg per day by osmotic minipump from ten days after immunization, animals sick/total); 2/8 sick in assay [2] (sCT 6 μg/kg per day by minipump from one week after immunization, table title: 0.87% calcium + 1 ng Vitamin D diet (text: regular chow), animals sick/total); 3/7 sick in assay [3] (female 1α-KO mice, 0.87% calcium + 1 ng Vitamin D diet, sCT 6 μg/kg per day by osmotic minipump from ten days after immunization, animals sick/total). The “reduction in the EAE score, male versus female” value in assay [1] (male 1α-OH KO mice treated with calcitonin compared with female 1α-OH KO mice treated with calcitonin) is listed as “similar, but lesser, reduction in the EAE score”. Besides, the EAE score result in assay [1] (male 1α-OH KO mice, compared to vehicle alone (FIG. 2, Table 3)) is “lowered the EAE score”; in assay [2] (compared to vehicle alone (FIG. 3)), “delayed and diminished the EAE score”; in assay [3] (female 1α-OH KO mice, compared to vehicle alone (FIG. 1, Table 2)), “delayed and diminished the EAE score”.
